Laboratory results as given in patent US20090197880A1 (Genelabs Technologies, Inc., priority 2007, published 2009).

Test: HCV replicon assay (luciferase) in ET (Huh-lucubineo-ET) cell line
Format: cell-based
Details: Hepatitis C virus; tested at 10 μM; inhibition of replication relative to no compound control; ET replicon cells, luciferase 48-72 hours; read-out: % inhition at 10 μM

SMILES	inhibition at 10 µM [%]
CC(F)(F)c1ccc(-c2cc(Cn3cc4nc(-c5cccc(F)c5F)nc-4cn3)on2)cc1 [Compound 314, 5-{3-[4-(1,1-Difluoro-ethyl)-phenyl]-isoxazol-5-ylmethyl}-2-(2,3-difluoro-phenyl)-5H-imidazo[4,5-d]pyridazine]	99.8
CCCOc1cnc(-c2cc(Cn3cc4nc(-c5cccc(F)c5F)nc-4cn3)on2)cn1 [Compound 315, 2-(2,3-Difluoro-phenyl)-5-[3-(5-propoxy-pyrazin-2-yl)-isoxazol-5-ylmethyl]-5H-imidazo[4,5-d]pyridazine]	99.3
CCCC(F)(F)c1ccc(-c2cc(Cn3cc4nc(-c5cccc(F)c5F)nc-4cn3)on2)cc1 [Compound 316, 5-{3-[4-(1,1-Difluoro-butyl)-phenyl]-isoxazol-5-ylmethyl}-2-(2,3-difluoro-phenyl)-5H-imidazo[4,5-d]pyridazine]	99.7
Cc1ccc(-c2cc(Cn3cc4nc(-c5cccc(F)c5F)nc-4cn3)no2)nn1 [Compound 318, 2-(2,3-Difluoro-phenyl)-5-[5-(6-methyl-pyridazin-3-yl)-isoxazol-3-ylmethyl]-5H-imidazo[4,5-d]pyridazine]	50
Fc1cccc(-c2nc3cnn(Cc4cc(-c5ccc(OCC6CCOCC6)cc5C(F)(F)F)no4)cc-3n2)c1F [Compound 319, 2-(2,3-Difluoro-phenyl)-5-{3-[4-(tetrahydro-pyran-4-ylmethoxy)-2-trifluoromethyl-phenyl]-isoxazol-5-ylmethyl}-5H-imidazo[4,5-d]pyridazine]	100
COCCOc1ccc(-c2cc(Cn3cc4nc(-c5cccc(F)c5F)nc-4cn3)on2)c(C(F)(F)F)c1 [Compound 320, 2-(2,3-Difluoro-phenyl)-5-{3-[4-(2-methoxy-ethoxy)-2-trifluoromethyl-phenyl]-isoxazol-5-ylmethyl}-5H-imidazo[4,5-d]pyridazine]	99.8
Fc1cccc(-c2nc3cnn(Cc4cc(-c5ccc(-c6cnoc6)cc5C(F)(F)F)no4)cc-3n2)c1F [Compound 321, 2-(2,3-Difluoro-phenyl)-5-[3-(4-isoxazol-4-yl-2-trifluoromethyl-phenyl)-isoxazol-5-ylmethyl]-5H-imidazo[4,5-d]pyridazine]	82.5
Fc1cccc(-c2nc3cnn(Cc4cc(-c5ccc(-c6cn[nH]c6)cc5C(F)(F)F)no4)cc-3n2)c1F [Compound 322, 2-(2,3-Difluoro-phenyl)-5-{3-[4-(1H-pyrazol-4-yl)-2-trifluoromethyl-phenyl]-isoxazol-5-ylmethyl}-5H-imidazo[4,5-d]pyridazine]	94.9
CC(C)Cc1ccc(-c2cc(Cn3cc4nc(-c5cccc(F)c5F)nc-4cn3)on2)c(C(F)(F)F)c1 [Compound 323, 2-(2,3-Difluoro-phenyl)-5-[3-(4-isobutyl-2-trifluoromethyl-phenyl)-isoxazol-5-ylmethyl]-5H-imidazo[4,5-d]pyridazine]	100
O=C(COc1ccc(-c2cc(Cn3cc4nc(-c5cccc(F)c5F)nc-4cn3)on2)c(C(F)(F)F)c1)N1CCCCC1 [Compound 325, 2-(4-{5-[2-(2,3-Difluoro-phenyl)-imidazo[4,5-d]pyridazin-5-ylmethyl]-isoxazol-3-yl}-3-trifluoromethyl-phenoxy)-1-piperidin-1-yl-ethanone]	8.2
Fc1cccc(-c2nc3cnn(Cc4cc(-c5ccc(OCCCC(F)(F)F)cc5)no4)cc-3n2)c1F [Compound 326, 2-(2,3-Difluoro-phenyl)-5-{3-[4-(4,4,4-trifluoro-butoxy)-phenyl]-isoxazol-5-ylmethyl}-5H-imidazo[4,5-d]pyridazine]	99.3
C#CCOc1ccc(-c2cc(Cn3cc4nc(-c5cccc(F)c5F)nc-4cn3)on2)cc1 [Compound 327]	99.7
Fc1cccc(-c2nc3cnn(Cc4cc(-c5ccc(-c6nnn[nH]6)cc5)no4)cc-3n2)c1F [Compound 328, 2-(2,3-Difluoro-phenyl)-5-{3-[4-(1H-tetrazol-5-yl)-phenyl]-isoxazol-5-ylmethyl}-5H-imidazo[4,5-d]pyridazine]	55.5
